Assay results taken from ChEMBL document CHEMBL4619717, “Novel quinolin-4(1H)-one derivatives as multi-effective aldose reductase inhibitors for treatment of diabetic complications: Synthesis, biological evaluation, and molecular modeling studies” (Bioorg Med Chem Lett, 2020).

Key:
[1] = target: T1, AKR1A1 (aldo-keto reductase family 1 member A1) (Rattus norvegicus, UniProt P51635); test: Inhibition of AKR1A1 in rat kidney at 10 uM relative to control
T1 sequence (P51635 whole entry): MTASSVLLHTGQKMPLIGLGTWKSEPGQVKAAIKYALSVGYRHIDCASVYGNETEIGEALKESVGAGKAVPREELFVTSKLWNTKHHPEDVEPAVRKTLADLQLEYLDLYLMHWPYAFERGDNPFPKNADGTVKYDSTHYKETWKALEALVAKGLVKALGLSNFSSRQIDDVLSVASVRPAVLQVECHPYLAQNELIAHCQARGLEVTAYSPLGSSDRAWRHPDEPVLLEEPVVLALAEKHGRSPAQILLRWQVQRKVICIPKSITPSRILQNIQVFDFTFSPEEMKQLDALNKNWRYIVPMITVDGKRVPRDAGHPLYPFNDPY

[2] = Antioxidant activity assessed as DPPH radical scavenging activity at 100 uM relative to control; assay type: functional
[3] = target: Aldo-keto reductase family 1 member B1 (Rattus norvegicus, UniProt P07943); test: Inhibition of AKR1B1 in rat lenses
[4] = n-octanol/aqueous buffer distribution coefficient, logD of compound at pH 7.4 by shake flask assay based HPLC-MS analysis; assay type: physicochemical
[5] = Antioxidant activity assessed as DPPH radical scavenging activity at 50 uM relative to control; assay type: functional
[6] = Antioxidant activity assessed as DPPH radical scavenging activity at 10 uM relative to control; assay type: functional

Structure (SMILES)	inhibition at 10 µM [1]	Activity [2]	IC50 [3]	logD [4]	Activity [5]	Activity [6]
O=C(NO)c1cn(Cc2ccc(F)cc2)c2ccccc2c1=O	24.1%	32.1%	0.237 µM	–	–	–
O=C(O)c1cn(Cc2cc(O)cc(O)c2)c2ccccc2c1=O	36.6%	92.4%	0.057 µM	0.57	71.1%	51.7%
O=C(NO)c1cn(Cc2ccc(O)c(O)c2)c2ccccc2c1=O	25.4%	88.1%	0.287 µM	–	65.1%	51.1%
O=C(O)c1cn(Cc2ccc(O)cc2)c2ccccc2c1=O	37.5%	62.7%	0.098 µM	–	30.4%	14.6%
O=C(NO)c1cn(Cc2ccc(Cl)cc2)c2ccccc2c1=O	26.5%	31.7%	0.626 µM	–	–	–
CONC(=O)c1cn(Cc2cc(O)cc(O)c2)c2ccccc2c1=O	21.7%	88.7%	0.689 µM	0.73	55.8%	42.7%
O=C(O)c1cn(Cc2ccc(Br)cc2)c2ccccc2c1=O	20.1%	25.4%	1.53 µM	–	–	–
O=C(O)c1cn(Cc2ccc(O)c(O)c2)c2ccccc2c1=O	38.6%	87.1%	0.251 µM	–	61.9%	44.9%
O=C(O)c1cn(Cc2ccc(F)cc2)c2ccccc2c1=O	30.2%	21.4%	0.154 µM	–	–	–
CS(=O)(=O)NC(=O)c1cn(Cc2cc(O)cc(O)c2)c2ccccc2c1=O	24.7%	79.4%	0.112 µM	–	64.7%	33.6%
COc1ccc(Cn2cc(C(=O)NO)c(=O)c3ccccc32)cc1	7.6%	34.1%	12.5 µM	–	–	–
O=C(NO)c1cn(Cc2cc(O)cc(O)c2)c2ccccc2c1=O	27.4%	91%	0.065 µM	1.32	72.4%	57.8%
CS(=O)(=O)NC(=O)c1cn(Cc2ccccc2)c2ccccc2c1=O	7.9%	28.7%	15 µM	0.53	–	–
COc1cc(Cn2cc(C(=O)O)c(=O)c3ccccc32)cc(OC)c1	30.1%	47.6%	9.87 µM	–	–	–
COc1ccc(Cn2cc(C(=O)NO)c(=O)c3ccccc32)cc1OC	10.5%	39.1%	13.6 µM	–	–	–
O=C(NO)c1cn(Cc2ccc(Br)cc2)c2ccccc2c1=O	17.6%	27.6%	2.49 µM	–	–	–
COc1cc(Cn2cc(C(=O)NO)c(=O)c3ccccc32)cc(OC)c1	17.2%	41.3%	15.6 µM	–	–	–
COc1ccc(Cn2cc(C(=O)O)c(=O)c3ccccc32)cc1OC	24.8%	32.2%	10.6 µM	–	–	–
Cc1c(C)c2c(c(C)c1O)CCC(C)(C(=O)O)O2 (stereo not drawn)	–	94.2%	–	–	84.1%	77.2%
COc1ccc(Cn2cc(C(=O)O)c(=O)c3ccccc32)cc1	–	30.5%	12 µM	–	–	–
CC(/C=C1\SC(=S)N(CC(=O)O)C1=O)=C\c1ccccc1	43.1%	–	–	–	–	–
O=C(NO)c1cn(Cc2ccc(O)cc2)c2ccccc2c1=O	34.6%	74.9%	0.107 µM	–	51.1%	32.3%
CONC(=O)c1cn(Cc2ccccc2)c2ccccc2c1=O	5.1%	25.2%	12.8 µM	1.19	–	–
O=C(O)c1cn(Cc2ccccc2)c2ccccc2c1=O	5.8%	20.3%	11 µM	0.82	–	–
O=C(NO)c1cn(Cc2ccccc2)c2ccccc2c1=O	7.1%	27.1%	12.6 µM	1.53	–	–
O=C(O)c1cn(Cc2ccc(Cl)cc2)c2ccccc2c1=O	18.3%	28.7%	0.321 µM	–	–	–
